Test results reported in article PMC6206206, “Behavioral and Pharmacokinetic Profile of Indole-Derived Synthetic Cannabinoids JWH-073 and JWH-210 as Compared to the Phytocannabinoid Δ^9-THC in Rats” (Frontiers in Neuroscience, 2018).

Experiments:
[1] = Serum levels of JWH-073 and JWH-210 after sc. administration (LC-MS)
[2] = tested on: cannabinoid CB1 receptors; details: cited from earlier work
[3] = tested on: mice; details: 3–30 mg/kg; ref Marshell et al., 2014; cited from earlier work
[4] = tested on: Wistar rats; assay: Open field test (locomotor activity, thigmotaxis, time in center); format: in vivo; details: for locomotion in 5 min time intervals (open field): 1 h after administration, vs vehicle
Description: (§1) All behavioral experiments were performed 1 h after sc. drugs administration.
A square black plastic open field arena (68 × 68 × 30 cm) was placed in a soundproof and diffusely lit room. Each of animals was placed into the center of the arena, in a novel unfamiliar environment, and 1 h after drug administration the behavior was video-recorded for 30 min using the system EthoVision Color pro v. 3.0 (Noldus, NL). Locomotor activity was subsequently analyzed within 5 min blocks/time intervals (1–6). The calculation of the data was performed in the EthoVision software and corrected (smoothed) for movement deviations of < 3 cm. Initially total distance traveled per time block was calculated and data were plotted in the graphs. To evaluate the spatial characteristics of the locomotor activity such as thigmotaxis and time spent in the center of arena, the arena was virtually divided into 5 × 5 identical square zones with 16 located peripherally and nine centrally. Frequency (f) of appearances of the animal in different zones of the arena was used to calculate thigmotaxis (i) (i = ∑fperipheralzones / ∑fallzones) which is a number (value varying from 0 to 1) indicating the probability of appearance in peripheral zones. Time spent in the center of the arena (Tcenter) was calculated Tcenter = ∑timecentralzones (Balikova et al., [2014]; Horsley et al., [2016]; Palenicek et al., [2016]; Tyls et al., [2016]; Hlozek et al., [2017]; Sichova et al., [2017]; Stefkova et al., [2017]).
To evaluate the effect on the locomotion measured in 5 min intervals, two-way repeated measures ANOVA analysis (factor 1: drug; factor 2: time intervals) was used in software system IBM SPSS version 22. Significant main effects and interaction two-way repeated measures ANOVAs were followed with pairwise comparisons using independent t-test. For repeated measures ANOVAs, where Mauchly's test of sphericity was significant, Greenhouse-Geisser [Greenhouse-Geisser estimate of sphericity (ε) < 0.75 or Huynh-Feldt (ε) >0.75] correction are reported. Degrees of freedom were rounded to whole number for presentational purposes. For independent t-test, where Levene's test for equality of variances was significant, statistics corrected for unequal variances are given p < 0.05 (two tailed) was considered the minimal criterion for statistical significance. For multiple comparisons, t-test was used with Bonferroni correction. The total length of the trajectory over 30-min, thigmotaxis and time in the center, ASR, habituation and PPI were analyzed by one-way ANOVA analysis by using software STATISTICA version 9.0. Where appropriate, ANOVA analyses were followed by the Tukey post-hoc test. Statistical significance was set at p < 0.05 for all analyses.

[5] = tested on: Wistar rats; assay: Prepulse inhibition (PPI) of acoustic startle response (ASR); format: in vivo; details: for alteration of ASR or PPI by acute treatment: all doses tested, sc., 1 h after administration
Description: as §1
The PPI of ASR took place in two ventilated startle chambers (SR-LAB, San Diego Instruments, California, USA) which were calibrated to ensure equivalent stabilimeter sensitivity between the chambers. The test consists of acclimatization and two sessions, as previuosly described (Direnberger et al., [2012]; Palenicek et al., [2016]; Tyls et al., [2016]; Hlozek et al., [2017]; Sichova et al., [2017]; Stefkova et al., [2017]). Briefly, acclimatization was performed 2 days before the test, when drug-free rats were habituated in 5 min session with five presentations of pulse alone stimuli (115 dB/20 ms) over background white noise (75 dB). On the day of test, the compounds or vehicle were administered sc. 1 h prior to PPI/ASR testing. After acclimatization (5 min with 75 dB background noise), the test started with a short session of six 40 ms 125 dB pulse trials to establish baseline ASR. It was followed by the second session consisting of trials presented in a pseudorandom order: (1) single pulse alone: 40 ms 125 dB; (2) trial of prepulse-pulse: 20 ms prepulse of 83 dB presented 30, 60, and 120 ms (average 70 ms) before 40 ms 125 dB pulse; (C) 60 ms no stimulus. Finally, six […] 125 dB pulse trials were delivered. Habituation was calculated by the percentage reduction in ASR from the initial six, to the final six pulse trials. PPI was calculated as: [100–(mean prepulse–pulse trials/mean pulse alone trials)^*100]. ASR was derived from mean pulse alone trials. Animals with an AVG response lower than 10 were excluded from further analysis as non-responders.
To evaluate the effect on the locomotion measured in 5 min intervals, two-way repeated measures ANOVA analysis (factor 1: drug; factor 2: time intervals) was used in software system IBM SPSS version 22. […] The total length of the trajectory over 30-min, thigmotaxis and time in the center, ASR, habituation and PPI were analyzed by one-way ANOVA analysis by using software STATISTICA version 9.0. […]

[6] = Serum levels of Δ^9-THC and its metabolites after sc. administration (GC-MS); details: after Δ^9-THC 3 mg/kg sc.; for detectability in serum over the measurement intervals: 30 min, 1, 2, 4, 8, 24 h; for maximum serum concentration (Mean ± SEM): n = 6
[7] = 3 mg/kg sc., vs control, p < 0.01

**Q.** Which “detectability in serum over the measurement intervals” value ([1]; 0.5 mg/kg sc., 30 min, 1, 2, 4, 8, 24 h) does the source give for CCCCn1cc(C(=O)c2cccc3ccccc23)c2ccccc21 [JWH-073, (1-butylindol-3-yl)-naphthalen-1-ylmethanone] here?
**A.** Its value is “detectable at all measurement intervals”.

**Q.** What about the “maximum serum concentration (Mean ± SEM)” value ([1]; 0.5 mg/kg sc., rat serum, n = 8) of the same compound?
**A.** Its value is 1.84 ± 0.06 ng/mL.

**Q.** What about the Tmax ([1]; male, Wistar, rat, serum, sc, 0.5 mg/kg) of the same compound?
**A.** The Tmax was 4 h.

**Q.** And the concentration at 24 h ([1]; male, Wistar, rat, serum, subcutaneous, 0.5 mg/kg)?
**A.** The concentration at 24 h was 0.41 ± 0.19 ng/mL.

**Q.** And the “CB1 binding affinity relative to Δ^9-THC (fold higher)” value ([2]; vs Δ^9-THC, ref Wiley et al., 1998, Aung et al., 2000, Brents et al., 2012)?
**A.** Its value is “four-fold higher”.

**Q.** What about the locomotor activity [3] of the same compound?
**A.** The locomotor activity was “dose-dependent reduced locomotor activity”.

**Q.** What about the “locomotion in 5 min time intervals (open field)” value ([4]; 0.1 mg/kg sc.) of the same compound?
**A.** The value was “significantly increased locomotor activity at the 5-10 and 10-15 min time blocks”.

**Q.** What about the “locomotion in 5 min time intervals (open field)” value ([4]; 0.5 mg/kg sc.) of the same compound?
**A.** The value was “increased locomotion at 0–5, 5–10, 10–15, and 20–25 min onset”.

**Q.** And the “total length of the trajectory over 30-min (total locomotor activity)” value ([4]; 0.5 mg/kg sc., vs control group, p < 0.05)?
**A.** The value was “significantly increased locomotor activity”.

**Q.** And the “locomotion in 5 min time intervals (open field)” value ([4]; 5 mg/kg sc.)?
**A.** Its value is “reduced the locomotor activity at 15–20 min time block”.

**Q.** And the “thigmotaxis (probability of appearance in peripheral zones)” value ([4]; 0.1, 0.5 and 5 mg/kg sc.)?
**A.** The value was “neither JWH-073 nor JWH-210 modified the thigmotaxis”.

**Q.** What about the “time spent in the central zones of the open field” value ([4]; 0.1, 0.5 and 5 mg/kg sc.) of the same compound?
**A.** Its value is “neither JWH-073 nor JWH-210 modified”.

**Q.** And the “alteration of ASR or PPI by acute treatment” value [5]?
**A.** The value was “did not find significant alteration”.

**Q.** Which results are given for CCCCCc1cc(O)c2c(c1)OC(C)(C)[C@@H]1CCC(C)=C[C@@H]21 [Δ^9-THC, Δ9-tetrahydrocannabinol]?
**A.** Ki ([2]; ref Huffman et al., 2005, read-out: Ki, affinity for central and peripheral cannabinoid CB1 receptors): 41 ± 2 nM; thigmotaxis (probability of appearance in peripheral zones) [4, 7]: decreased thigmotaxis; time spent in the center of the open field arena [4, 7]: increased time spent in central zone; total trajectory in the open field test ([4]; 1 or 3 mg/kg sc.): did not affect the total trajectory; locomotion in 5 min time intervals (open field) ([4]; 1 or 3 mg/kg sc.): neither a main effect of drug nor drug × time interval interaction were found; prepulse inhibition (PPI), post-hoc ([5]; 1 mg/kg sc., p = 0.06): slight not significant decrease of PPI; alteration of ASR or PPI by acute treatment [5]: did not find significant alteration; detectability in serum over the measurement intervals [6]: detectable as Δ^9-THC at all intervals; time of maximum serum concentration ([6]; rat serum): 1 h; time of second serum peak ([6]; rat serum): 8 h; maximum serum concentration (Mean ± SEM) ([6]; rat serum): 12.1 ± 3.06 ng/mL

**Q.** Which results are given for CCCCCc1cc(O)c2c(c1)OC(C)(C)[C@@H]1CCC(C(=O)O)=C[C@@H]21 [THC-COOH]?
**A.** detectability in serum over the measurement intervals [6]: detectable as Δ^9-THC at all intervals; time of maximum serum concentration ([6]; rat serum): 1 h; maximum serum concentration (Mean ± SEM) ([6]; rat serum): 10.5 ± 7.27 ng/mL
